# According to US7671077B2, “Neuroprotective small organic molecules, compositions and uses related thereto” (priority 2004, dated 2010):
# System: midbrain dopaminergic neurons
# Test: Dopamine (DA) uptake assay in primary midbrain cultures
# Format: cell-based, rat
# Details: FIG. 36
# Protocol: Primary midbrain cultures were prepared from rat embryo ventral mesencephalon as described previously by Lin et al (1994). In brief, rostral mesencephalic tegmentum of embryonic day 16 rat embryos was collected in DMEM/F12 (Hyclone SH30023.01) containing 2 mM glutamine on ice, The tissue was treated with 0.1% trypsin in Hanks' balanced salt solution (HBSS, Gibco 14175-095) for 15 min at 37° C. and dissociated mechanically by mild trituration with a fire-polished glass pipet in growth medium plus 2% heat-inactivated fetal bovine serum (FBS). The growth medium consisted of equal volumes of Dulbecco's minimal essential medium DMEM (Gibco 12100-046) and HAM's F12 nutrient mixture (Gibco 21700-075) supplemented with 33 mM glucose, 13 mM sodium bicarbonate, 5 mM HEPES, 2 mM glutamine, 25 μg/ml insulin, 100 μg/ml transferrin, 60 μM putrescine, 20 nM progesterone, 30 nM sodium selenite, 5 U/ml penicillin G and 5 μg/ml streptomycin. 24-well tissue culture plate was coated by adding 15 μg/ml poly-1-ornithine hydrobromide solution at 0.5 ml/well, incubated at room temperature for 1 hr. The coating solution was removed and the well washed 3 times with distilled water and one wash with HBSS. The dissociated cells were plated onto polyornithine-coated wells at 250,000-350,000 trypan blue-excluding viable cells per well in 500 μl of above medium containing 1% FBS. After 3 h when most of the cells had adhered to the bottom of the well, the medium was replaced with 500 μl of fresh medium without FBS. A serial dilution of the sample to be assayed for trophic activity was added to each well in duplicate at the time of medium change or within 24 h thereafter. Unless otherwise stated, cultures were incubated at 37° C. without any further medium change up to 7 days. Primary hindbrain cultures were prepared as described for the midbrain cultures except that the rostral raphe region (instead of the rostral mesencephalon) was dissected and trypsinized for 20 (instead of 15) min.
# [^3H]DA uptake was measured in cultures at day 7, and all the solutions were maintained at 37° C. The growth medium was removed, and the cultures were rinsed twice with 0.25 ml of uptake buffer, which consists of HBSS (Gibco 11201-092) supplemented with 28 mM glucose, 15 mM HEPES, 1 mM ascorbic acid (an antioxidant), and […] pargyline (a monoamine oxidase inhibitor). The cultures were then incubated with 0.25 ml of fresh uptake buffer containing 50 nM [^3H]DA (NEN/DuPont) for 20 min at 37° C. [^3H]DA uptake was stopped by removing the incubation mixture, and cells were then washed twice with 0.5 ml of the uptake buffer at room temperature. To release [^3H]DA from the cells, the cultures were lysed with 0.2 ml of 0.1 N NaOH for 1 h at room temperature, the lysate was then added to 1 ml of Microscint-20 (Packard 6013621), and counted for radioactivity in a microplate scintillation counter (Packard TopCount, NXT). Background values were obtained by adding to the uptake buffer 0.5 mM GBR-12909, a specific inhibitor of the high-affinity uptake pump of the dopaminergic neurons, and were usually <5% of the ^3H uptake in untreated control cultures. Forskolin (Fk, 25 μM) was employed as a positive control.
row,SMILES,stimulation maximum of DA uptake compared to compound A
1,Cc1ccc(/C=C/C(=O)Nc2ccc(S(=O)(=O)Nc3cccs3)cc2)c(C)c1 [Compound Z′],higher stimulation maximum

# Same assay, conditions: Rattus norvegicus, Neuron, compound concentration 0.25 μM; midbrain culture; read-out: DA uptake % of control
row,SMILES,activity at 0.25 µM [%]
1,O=C(Nc1ccc(S(=O)(=O)Nc2nccs2)cc1)c1cc2ccccc2oc1=O [F′′′′],160

# Same assay, conditions: Rattus norvegicus, Neuron, compound concentration 0.3 μM; midbrain culture; read-out: DA uptake % of control
row,SMILES,activity at 0.3 µM [%]
1,O=C(Nc1ccc(S(=O)(=O)Nc2nccs2)cc1)c1sc2cc(Cl)ccc2c1Cl [F′],180

# Same assay, conditions: Rattus norvegicus, Neuron, compound concentration 0.6 μM; midbrain culture; read-out: DA uptake % of control
row,SMILES,activity at 0.6 µM [%]
1,O=C(/C=C/c1ccc(C(F)(F)F)cc1)Nc1ccc(S(=O)(=O)Nc2nccs2)cc1 [A′′′],195
2,O=C(/C=C/c1cccc(C(F)(F)F)c1Cl)Nc1ccc(S(=O)(=O)Nc2nccs2)cc1 [C′′′],180
3,O=C(Nc1ccc(S(=O)(=O)Nc2nccs2)cc1)c1sc2ccccc2c1Cl [D′],170
4,O=C(/C=C/c1ccccc1)Nc1ccc(S(=O)(=O)N2CCCCC2)cc1 [K′],125

# Same assay, conditions: Rattus norvegicus, Neuron, compound concentration 0.7 μM; midbrain culture; read-out: DA uptake % of control
row,SMILES,activity at 0.7 µM [%]
1,Cc1cc(NS(=O)(=O)c2ccc(NC(=O)/C=C/c3c(Cl)cccc3Cl)cc2)no1 [I],150
2,O=C(/C=C/c1cccc(Cl)c1)Nc1ccc(S(=O)(=O)Nc2cnc3ccccc3n2)cc1 [K],190

# Same assay, conditions: Rattus norvegicus, Neuron, compound concentration 1.2 μM; midbrain culture; read-out: DA uptake % of control
row,SMILES,activity at 1.2 µM [%]
1,O=C(/C=C/c1cccc([N+](=O)[O-])c1)Nc1ccc(S(=O)(=O)Nc2nccs2)cc1 [E′],210

# Same assay, conditions: Rattus norvegicus, Neuron, compound concentration 1.25 μM; midbrain culture; read-out: DA uptake % of control
row,SMILES,activity at 1.25 µM [%]
1,O=C(/C=C/c1ccc(Cl)cc1)Nc1ccc(S(=O)(=O)Nc2ncccn2)cc1 [A′],140
2,O=C(/C=C/c1c(Cl)cccc1Cl)Nc1ccc(S(=O)(=O)Nc2ccccn2)cc1 [A″],340
3,COc1cc(Br)c(/C=C/C(=O)Nc2ccc(S(=O)(=O)Nc3nccs3)cc2)cc1OC [B′′′],260
4,O=C(/C=C/c1cccc(Cl)c1)Nc1ccc(S(=O)(=O)Nc2nc[nH]n2)cc1 [B′′′′′],230
5,Cc1ccc(/C=C/C(=O)Nc2ccc(S(=O)(=O)Nc3cccs3)cc2)c(C)c1 [Compound Z′],365
6,Cc1cc(C)cc(/C=C/C(=O)Nc2ccc(S(=O)(=O)Nc3nccs3)cc2)c1 [D′′′],240
7,O=C(/C=C/c1ccccc1Br)Nc1ccc(S(=O)(=O)Nc2nc[nH]n2)cc1 [D″],310
8,Cc1cccc(/C=C/C(=O)Nc2ccc(S(=O)(=O)Nc3nc[nH]n3)cc2)c1 [E″],290
9,O=C(/C=C/c1ccccc1C(F)(F)F)Nc1ccc(S(=O)(=O)Nc2nc[nH]n2)cc1 [G″],350
10,O=C(/C=C/c1cccc(C(F)(F)F)c1)Nc1ccc(S(=O)(=O)Nc2nccs2)cc1 [H′′′′],240
11,O=C(/C=C/c1c(Cl)cccc1Cl)Nc1ccc(S(=O)(=O)Nc2nc[nH]n2)cc1 [H″],260
12,COc1ccc(/C=C/C(=O)Nc2ccc(S(=O)(=O)Nc3nccs3)cc2)c(Cl)c1OC [I″],245
13,Cc1ccc(C)c(/C=C/C(=O)Nc2ccc(S(=O)(=O)Nc3nccs3)cc2)c1 [J″],320
14,O=C(/C=C/c1ccc(O)cc1)Nc1ccc(S(=O)(=O)Nc2ccccn2)cc1 [L′′′],130

# Same assay, conditions: Rattus norvegicus, Neuron, compound concentration 2.5 μM; midbrain culture; read-out: DA uptake % of control
row,SMILES,activity at 2.5 µM [%]
1,O=C(/C=C/c1ccccc1F)Nc1ccc(S(=O)(=O)Nc2nccs2)cc1 [A′′′′],170
2,O=C(/C=C/c1ccccc1)Nc1ccc(S(=O)(=O)Nc2nccs2)cc1 [B],170
3,O=C(/C=C/c1ccccc1Cl)Nc1ccc(S(=O)(=O)Nc2ncccn2)cc1 [C′],140
4,Cc1ccc(/C=C/C(=O)Nc2ccc(S(=O)(=O)Nc3ccccn3)cc2)cc1 [C′′′′],160
5,O=C(Nc1ccc(S(=O)(=O)Nc2cccs2)cc1)c1ccc2ccccc2c1 [C″],200
6,Cn1c(C(=O)Nc2ccc(S(=O)(=O)Nc3nccs3)cc2)cc2ccccc21 [D′′′′],190
7,Cc1ccccc1/C=C/C(=O)Nc1ccc(S(=O)(=O)Nc2nc[nH]n2)cc1 [D′′′′′],260
8,Cc1ccc(/C=C/C(=O)Nc2ccc(S(=O)(=O)Nc3nccs3)cc2)cc1 [E],260
9,CN(C)c1ccc(C(=O)Nc2ccc(S(=O)(=O)Nc3nccs3)cc2)cc1 [E′′′],130
10,O=C(Nc1ccc(S(=O)(=O)Nc2nccs2)cc1)c1cc2ccccc2o1 [E′′′′],260
11,O=C(/C=C/c1ccccc1Cl)Nc1ccc(S(=O)(=O)Nc2ccccn2)cc1 [F″],180
12,Cc1cccc(/C=C/C(=O)Nc2ccc(S(=O)(=O)Nc3nccs3)cc2)c1 [G′′′′],220
13,CC(C)(C)c1ccc(C(=O)Nc2ccc(S(=O)(=O)Nc3nccs3)cc2)cc1 [H],150
14,O=C(/C=C/c1ccccc1Cl)Nc1ccc(S(=O)(=O)N2CCOCC2)cc1 [I′],150
15,O=C(/C=C/c1cccc(F)c1)Nc1ccc(S(=O)(=O)Nc2nccs2)cc1 [I′′′′],200
16,COc1cccc(/C=C/C(=O)Nc2ccc(S(=O)(=O)Nc3nccs3)cc2)c1 [J′′′],140
17,O=C(/C=C/c1ccccc1)Nc1ccc(S(=O)(=O)N2CCCCC2)cc1 [K′],320
18,COc1ccccc1/C=C/C(=O)Nc1ccc(S(=O)(=O)Nc2nccs2)cc1 [K′′′],170
19,O=C(Nc1ccc(S(=O)(=O)Nc2nccs2)cc1)c1cc2ccccc2[nH]1 [K′′′′],150
20,COc1ccccc1/C=C\C(=O)Nc1ccc(S(=O)(=O)Nc2nccs2)cc1 [L′′′′],200

# Same assay, conditions: Rattus norvegicus, Neuron, compound concentration 5 μM; midbrain culture; read-out: DA uptake % of control
row,SMILES,activity at 5 µM [%]
1,CCc1nnc(NS(=O)(=O)c2ccc(NC(=O)c3ccc(Cl)cc3Cl)cc2)s1 [B′],150
2,Cc1cccc(/C=C/C(=O)Nc2ccc(S(=O)(=O)Nc3ccccn3)cc2)c1 [B′′′′],240
3,Cc1cc(NS(=O)(=O)c2ccc(NC(=O)/C=C/c3ccccc3Cl)cc2)no1 [B″],180
4,COc1ccc(/C=C/C(=O)Nc2ccc(S(=O)(=O)Nc3nccs3)cc2)cc1 [I′′′],140
5,Cc1noc(NS(=O)(=O)c2ccc(NC(=O)/C=C/c3ccc(Cl)cc3)cc2)c1C [J′],180
6,Cc1noc(NS(=O)(=O)c2ccc(NC(=O)/C=C/c3ccccc3Cl)cc2)c1C [L′],140

# Same assay, conditions: Rattus norvegicus, Neuron, compound concentration 10 μM; midbrain culture; read-out: DA uptake % of control
row,SMILES,activity at 10 µM [%]
1,CCc1nnc(NS(=O)(=O)c2ccc(NC(=O)c3ccccc3F)cc2)s1 [Compound Z],150
2,COc1cccc(C(=O)Nc2ccc(S(=O)(=O)Nc3nccs3)cc2)c1 [F′′′],140
3,COc1ccc(C(=O)Nc2ccc([S+]([O-])Nc3nccs3)cc2)cc1 (stereo not shown) [H′],160
4,CCOc1ccc(C(=O)Nc2ccc(S(=O)(=O)Nc3nccs3)cc2)cc1 [L],160

# Same assay, conditions: Rattus norvegicus, Neuron, compound concentration 20 μM; midbrain culture; read-out: DA uptake % of control
row,SMILES,activity at 20 µM [%]
1,O=C(COc1ccc(Cl)cc1)Nc1ccc(S(=O)(=O)Nc2nccs2)cc1 [Compound D],210
2,O=C(Nc1ccc(S(=O)(=O)Nc2nccs2)cc1)c1ccc(F)c(F)c1 [F],180
3,Cc1cc(NS(=O)(=O)c2ccc(NC(=O)/C=C/c3ccccc3)cc2)no1 [G′],140
4,O=C(/C=C/c1ccccc1)Nc1ccc(S(=O)(=O)Nc2ccccn2)cc1 [G′′′],180
5,COc1ccc(/C=C/C(=O)Nc2ccc(S(=O)(=O)Nc3ccccn3)cc2)cc1 [H′′′],180
6,COc1cc(OC)cc(C(=O)Nc2ccc(S(=O)(=O)Nc3nccs3)cc2)c1 [J],150

# Same assay, conditions: Rattus norvegicus, Neuron, compound concentration 40 μM; midbrain culture; read-out: DA uptake % of control
row,SMILES,activity at 40 µM [%]
1,O=C(/C=C/c1ccco1)Nc1ccc(S(=O)(=O)Nc2ccco2)cc1 [G],190

# Same assay, conditions: Rattus norvegicus, Neuron; midbrain culture, FIG. 36; read-out: half-maximal effective concentration (EC50) for DA uptake stimulation
row,SMILES,EC50 [nM]
1,Cc1ccc(/C=C/C(=O)Nc2ccc(S(=O)(=O)Nc3cccs3)cc2)c(C)c1 [Compound Z′],~200

# Same assay, conditions: compound concentration 1.25 μM; midbrain culture; 1.25 µM
row,SMILES,DA uptake % of control
1,O=C(/C=C/c1c(Cl)cccc1Cl)Nc1ccc(S(=O)(=O)Nc2nccs2)cc1 [C′′′′′],310% of control

# Same assay, conditions: compound concentration 2.5 μM; midbrain culture
row,SMILES,DA uptake % of control [%]
1,O=C(/C=C/c1ccccc1Br)Nc1ccc(S(=O)(=O)Nc2nccs2)cc1 [J′′′′],210
